≈ marks a conversion by molar mass, not a printed value.
How the values were obtained:
[1] = tested on: Escherichia coli; experiment: Minimum inhibitory concentration against Escherichia coli (EC) in Davis minimal media under Anaerobic conditions(in vitro); format: functional
[2] = tested on: Escherichia coli; experiment: Minimum inhibitory concentration against Escherichia coli (EC) in Davis minimal media under Aerobic conditions(in vitro); format: functional
[3] = tested on: Escherichia coli; experiment: Minimum inhibitory concentration against Escherichia coli (EC) in Davis minimal media under Anaerobic conditions(in vitro); No indication of toxicity; format: functional, organism-based
[4] = tested on: Escherichia coli; experiment: Minimum inhibitory concentration against Escherichia coli (EC) in Davis minimal media under aerobic conditions(in vitro); No indication of toxicity; format: functional, organism-based

Row | Structure (SMILES) | MIC [1] | MIC [2] | MIC [3] | MIC [4]
1 | N.[O-]c1n[n+]([C@@H]2O[C@H](CO)[C@@H](O)[C@H]2O)ccc1S | 100 µg/mL | – | – | –
2 | NC(=O)c1cc[n+]([C@@H]2O[C@H](CO)[C@@H](O)[C@H]2O)nc1[O-] | – | – | No indication of toxicity | No indication of toxicity
3 | Nc1cc[n+]([C@@H]2O[C@H](CO)[C@@H](O)[C@H]2O)nc1[O-] | 100 µg/mL (≈ 411 µM) | – | – | –
4 | CC(=O)OC[C@H]1O[C@@H]([n+]2ccc(Cl)c([O-])n2)[C@H](O)[C@@H]1O | 25 µg/mL (≈ 82.1 µM) | 25 µg/mL (≈ 82.1 µM) | – | –
5 | COc1cc[n+]([C@@H]2O[C@H](CO)[C@@H](O)[C@H]2O)nc1[O-] | 100 µg/mL (≈ 387 µM) | – | – | –

The next lines start with results.

Row | MIC [1] | MIC [2] | Structure (SMILES) | MIC [3] | MIC [4]
6 | 3.1 µg/mL (≈ 12.2 µM) | 0.78 µg/mL (≈ 3.08 µM) | N#Cc1cc[n+]([C@@H]2O[C@H](CO)[C@@H](O)[C@H]2O)nc1[O-] | – | –
7 | – | 100 µg/mL (≈ 339 µM) | CC(=O)OC[C@H]1O[C@@H]([n+]2ccc(C#N)c([O-])n2)[C@H](O)[C@@H]1O | – | –
8 | 0.2 µg/mL (≈ 0.761 µM) | 0.2 µg/mL (≈ 0.761 µM) | [O-]c1n[n+]([C@@H]2O[C@H](CO)[C@@H](O)[C@H]2O)ccc1Cl | – | –

Source: ChEMBL document CHEMBL1122535, “Mesoionic pyridazine ribonucleosides. A novel biologically active nucleoside metabolite” (1984)
